This note sets out measurements from patent publication US8148391B2 (Cephalon, Inc., priority 2006, dated 2012).

Molecules are shown by their SMILES. Read-outs that look alike come from different tables or passages of the source.

Assay [1] has as its target T1, baculovirus-expressed ALK (Homo sapiens, UniProt Q9UM73).
T1 construct: host or cells: baculovirus expression system
Nature of the assay: ALK Kinase Assay (ELISA-type, time-resolved fluorescence). The class given is biochemical. The essentials:
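Substrate coating: phospholipase C-γ, 10 μg/mL in TBS. Kinase step: 30 ng/ml ALK, 15 min, 37° C. Detection and analysis: Eu-N1 PT66 antibody, with IC50 fitted as a sigmoidal variable-slope dose-response curve.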

In assay [2] the target is T2, c-Met (cytoplasmic domain) (Homo sapiens, UniProt P08581).
T2 construct: 10 ng/mL c-Met (cytoplasmic domain, Invitrogen Corporation #PV3143); purchased Invitrogen Corporation PV3143
T2 sequence (P08581 956-1390 limits assumed): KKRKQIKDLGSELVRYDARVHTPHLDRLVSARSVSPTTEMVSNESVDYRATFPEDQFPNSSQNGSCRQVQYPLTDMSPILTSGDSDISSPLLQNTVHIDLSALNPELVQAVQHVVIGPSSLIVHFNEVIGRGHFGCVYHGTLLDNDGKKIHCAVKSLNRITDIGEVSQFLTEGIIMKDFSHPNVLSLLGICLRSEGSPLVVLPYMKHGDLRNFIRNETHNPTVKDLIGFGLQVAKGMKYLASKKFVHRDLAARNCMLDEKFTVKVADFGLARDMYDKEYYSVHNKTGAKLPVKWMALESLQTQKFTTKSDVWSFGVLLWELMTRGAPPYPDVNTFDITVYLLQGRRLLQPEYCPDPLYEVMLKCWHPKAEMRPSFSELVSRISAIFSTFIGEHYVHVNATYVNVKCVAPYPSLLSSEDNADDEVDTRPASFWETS
Description: c-Met Kinase Assay (same methods as for ALK, with modifications). The assay is classed as biochemical. The essentials:
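This plate-based kinase format uses immobilized phospholipase C-γ as substrate, phosphorylated by c-Met cytoplasmic domain (10 ng/mL) at 37° C for 15 minutes.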

Where [3] appears, read: ALK kinase inhibition, 1 μM ATP, read-out: ALK Activity.
The mark [4] stands for this setting: c-Met kinase inhibition, 1 μM ATP, read-out: cMet Activity.
The mark [5] stands for this setting: ALK kinase inhibition, 1 μM ATP (Km level), read-out: ALK Activity.
Where [6] appears, read: c-Met kinase inhibition, 1 μM ATP (Km level), read-out: cMet Activity.
[7] abbreviates: 1 μM ATP (Km level), read-out: ALK Activity (ALK Kinase Inhibition, IC50).
The mark [8] stands for this setting: 1 μM ATP (Km level), read-out: cMet Activity (c-Met Kinase Inhibition, IC50).

T1 sequence (Q9UM73 19-1620): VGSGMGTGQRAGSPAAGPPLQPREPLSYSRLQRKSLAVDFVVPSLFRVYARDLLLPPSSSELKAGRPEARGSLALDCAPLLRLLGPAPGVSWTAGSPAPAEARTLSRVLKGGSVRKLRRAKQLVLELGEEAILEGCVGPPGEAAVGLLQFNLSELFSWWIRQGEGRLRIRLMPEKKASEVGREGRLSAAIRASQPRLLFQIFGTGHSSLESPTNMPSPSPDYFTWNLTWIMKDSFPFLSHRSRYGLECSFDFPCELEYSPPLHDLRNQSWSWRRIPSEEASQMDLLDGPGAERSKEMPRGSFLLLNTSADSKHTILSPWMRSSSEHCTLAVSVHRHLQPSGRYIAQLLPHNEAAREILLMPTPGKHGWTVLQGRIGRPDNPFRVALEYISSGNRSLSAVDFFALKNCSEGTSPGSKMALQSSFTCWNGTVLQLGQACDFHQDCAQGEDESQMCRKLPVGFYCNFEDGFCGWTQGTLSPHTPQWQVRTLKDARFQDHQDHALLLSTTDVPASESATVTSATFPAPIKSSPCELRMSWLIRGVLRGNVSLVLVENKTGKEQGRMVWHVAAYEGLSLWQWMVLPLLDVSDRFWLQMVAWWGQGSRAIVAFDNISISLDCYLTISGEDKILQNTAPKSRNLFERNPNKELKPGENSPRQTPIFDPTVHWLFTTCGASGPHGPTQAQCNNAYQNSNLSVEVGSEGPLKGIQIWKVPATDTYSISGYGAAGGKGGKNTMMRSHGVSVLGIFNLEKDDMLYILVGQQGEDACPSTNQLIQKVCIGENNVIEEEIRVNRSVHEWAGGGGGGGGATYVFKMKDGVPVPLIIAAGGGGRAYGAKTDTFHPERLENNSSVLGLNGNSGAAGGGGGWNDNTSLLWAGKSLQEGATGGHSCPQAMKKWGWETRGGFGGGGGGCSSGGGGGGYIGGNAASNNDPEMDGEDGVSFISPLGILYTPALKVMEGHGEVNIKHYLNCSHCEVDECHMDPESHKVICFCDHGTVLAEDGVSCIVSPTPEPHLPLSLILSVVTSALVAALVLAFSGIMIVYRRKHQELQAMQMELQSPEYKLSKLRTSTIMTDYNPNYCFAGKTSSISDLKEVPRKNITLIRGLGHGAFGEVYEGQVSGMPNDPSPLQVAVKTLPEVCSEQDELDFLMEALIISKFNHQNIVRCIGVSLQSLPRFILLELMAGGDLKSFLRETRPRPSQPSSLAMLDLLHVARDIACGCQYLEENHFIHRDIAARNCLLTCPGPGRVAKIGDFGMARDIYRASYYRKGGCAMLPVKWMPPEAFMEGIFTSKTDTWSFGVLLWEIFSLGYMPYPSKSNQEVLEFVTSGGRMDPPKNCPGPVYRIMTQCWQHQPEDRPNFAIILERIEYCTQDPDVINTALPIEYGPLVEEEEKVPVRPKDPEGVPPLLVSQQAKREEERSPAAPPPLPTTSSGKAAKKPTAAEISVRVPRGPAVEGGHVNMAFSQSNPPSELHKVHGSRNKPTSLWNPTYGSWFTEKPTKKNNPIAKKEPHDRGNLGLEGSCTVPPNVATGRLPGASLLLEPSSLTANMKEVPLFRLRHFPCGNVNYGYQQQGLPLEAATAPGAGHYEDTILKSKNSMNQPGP

For the compound `CCN1CCNC(=O)c2ccc(Nc3ncc(Cl)c(N[C@@H]4CCCC[C@H]4NS(C)(=O)=O)n3)cc21` [Example 1451, N-{(1R,2R)-2-[5-Chloro-2-(1-ethyl-5-oxo-2,3,4,5-tetrahydro-1H-benzo[e][1,4]diazepin-8-ylamino)-pyrimidin-4-ylamino]-cyclohexyl}-methanesulfonamide], the results for the IC50 in assay [1] (setting [3]) and in assay [2] (setting [4]) were under 100 nM and 100 to 1000 nM, respectively.

For the compound `COc1cc2c(cc1Nc1ncc(Cl)c(N[C@H]3[C@@H](C(N)=O)[C@@H]4C=C[C@H]3C4)n1)CCN(CC(=O)N1CCOCC1)CC2` [Example 1527, (1S,2S,3R,4R)-3-{5-Chloro-2-[8-methoxy-3-(2-morpholin-4-yl-2-oxo-ethyl)-2,3,4,5-tetrahydro-1H-3-benzazepin-7-ylamino]-pyrimidin-4-ylamino}-bicyclo[2.2.1]hept-5-ene-2-carboxylic acid amide], the IC50 in assay [1] (setting [3]) was under 100 nM; in assay [2] (setting [4]) it was over 10000 nM.

Turning to `CCC(C)N1C2CCC1c1cc(Nc3ncc(Cl)c(N[C@@H]4CCCC[C@H]4NS(C)(=O)=O)n3)ccc1C2` (mixture of isomers) [Example 84, N-{(1R,2R)-2-[2-(12-sec-Butyl-12-aza-tricyclo[7.2.1.0*2,7*]dodeca-2(7),3,5-trien-4-ylamino)-5-chloro-pyrimidin-4-ylamino]-cyclohexyl}-methanesulfonamide], the IC50 in assay [1] (setting [5]) is under 100 nM; in assay [2] (setting [6]), 100 to 1000 nM.

In the case of `CCNC(=O)c1cccc(F)c1Nc1nc(Nc2cc3c(cc2OC)CCN(CC(=O)NC)CC3)ncc1Cl` [Example 1364, 2-[5-Chloro-2-(8-methoxy-3-methylcarbamoylmethyl-2,3,4,5-tetrahydro-1H-benzo[d]azepin-7-ylamino)-pyrimidin-4-ylamino]-N-ethyl-3-fluoro-benzamide], the IC50 in assay [1] (1 μM ATP (Km level), 30 ng/ml ALK, 37° C., 15 minutes, read-out: ALK Activity (ALK kinase inhibition, IC50 class)) was under 100 nM; in assay [2] (1 μM ATP (Km level), 10 ng/mL c-Met, read-out: cMet Activity (c-Met kinase inhibition, IC50 class)), 1000 to 10000 nM.

For `COc1cc2c(cc1Nc1ncc(Cl)c(Nc3ccc(N4CCOCC4)cc3OC)n1)CCN(CCN1CCOCC1)CC2` [Example 1523, 5-Chloro-N(2)-[8-methoxy-3-(2-morpholin-4-yl-ethyl)-2,3,4,5-tetrahydro-1H-3-benzazepin-7-yl]-N(4)-(2-methoxy-4-morpholin-4-yl-phenyl)-pyrimidine-2,4-diamine], the IC50 was under 100 nM in assay [1] (setting [3]) and over 10000 nM in assay [2] (setting [4]).

Consider `CC1(C)CCC(=O)Nc2ccc(Nc3ncc(Cl)c(Nc4ccccc4-c4cnccn4)n3)cc21` [Example 975], for which the IC50 in assay [1] (setting [7]) is under 100 nM; in assay [2] (setting [8]) it was 1000 to 10000 nM.

Take `CCN1CCc2ccc(Nc3ncc(Cl)c(N[C@@H]4CCCC[C@H]4NC(=O)N(C)C)n3)cc2CC1` [Example 447, 3-{(1R,2R)-2-[5-Chloro-2-(3-ethyl-2,3,4,5-tetrahydro-1H-benzo[d]azepin-7-ylamino)-pyrimidin-4-ylamino]-cyclohexyl}-1,1-dimethyl-urea]: the IC50 in assay [1] (setting [5]) and in assay [2] (setting [6]) was 100 to 1000 nM each time.

On to `CNC(=O)c1ccsc1Nc1nc(Nc2ccc3c(c2)CCCC(=O)N3C)ncc1Cl` [Example 1487, 2-[5-Chloro-2-(1-methyl-2-oxo-2,3,4,5-tetrahydro-1H-benzo[b]azepin-7-ylamino)-pyrimidin-4-ylamino]-thiophene-3-carboxylic acid methylamide], for which the IC50 in assay [1] (setting [3]) and in assay [2] (setting [4]) was 100 to 1000 nM each time.

In the case of `COc1c(Nc2ncc(Cl)c(Nc3ccccc3S(=O)(=O)N3CCC(O)C3)n2)ccc2c1CCC(NCCO)CC2` (stereo not shown) [Example 703, 1-(2-{5-Chloro-2-[7-(2-hydroxy-ethylamino)-1-methoxy-6,7,8,9-tetrahydro-5H-benzocyclohepten-2-ylamino]-pyrimidin-4-ylamino}-benzenesulfonyl)-pyrrolidin-3-ol], the IC50 in assay [1] (setting [7]) is under 100 nM; in assay [2] (setting [8]), 100 to 1000 nM.

Consider `CCNC(=O)c1ccccc1Nc1nc(Nc2cccc3c2OCCCC3(C)C)ncc1Cl` [Example 873, 2-[5-Chloro-2-(5,5-dimethyl-2,3,4,5-tetrahydro-benzo[b]oxepin-9-ylamino)-pyrimidin-4-ylamino]-N-ethyl-benzamide], for which the values for the IC50 in assay [1] (setting [7]) and in assay [2] (setting [8]) were under 100 nM and over 10000 nM, respectively.

With `CC1(C)CCC(=O)Nc2ccc(Nc3ncc(Cl)c(Nc4ccccc4-c4nc(C(F)(F)F)c[nH]4)n3)cc21` [Example 1010, 7-{5-Chloro-4-[2-(4-trifluoromethyl-1H-imidazol-2-yl)-phenylamino]-pyrimidin-2-ylamino}-5,5-dimethyl-1,3,4,5-tetrahydro-benzo[b]azepin-2-one], the IC50 in assay [1] (setting [7]) was in the range of 100 to 1000 nM; in assay [2] (setting [8]), 1000 to 10000 nM.

`CCN1C(=O)CCCc2c1ccc(Nc1ncc(Cl)c(NC3C4CCC(C4)C3C(N)=O)n1)c2OC` (stereo not drawn) [Example 129, (2-exo, 3-exo)-3-[5-Chloro-2-(1-ethyl-6-methoxy-2-oxo-2,3,4,5-tetrahydro-1H-benzo[b]azepin-7-ylamino)-pyrimidin-4-ylamino]-bicyclo[2.2.1]heptane-2-carboxylic acid amide]: the IC50 in assay [1] (setting [5]) was under 100 nM; in assay [2] (setting [6]) it was over 10000 nM.

As for `C#CCNC(=O)c1cccc(F)c1Nc1nc(Nc2ccc3c(c2)N(CC)C(=O)C(NC(=O)CN(C)C)CC3)ncc1Cl` (stereo not shown) [Example 1497, 2-{5-Chloro-2-[3-(2-dimethylamino-acetylamino)-1-ethyl-2-oxo-2,3,4,5-tetrahydro-1H-benzo[b]azepin-8-ylamino]-pyrimidin-4-ylamino}-3-fluoro-N-prop-2-ynyl-benzamide], the figures for the IC50 in assay [1] (setting [3]) and in assay [2] (setting [4]) were 100 to 1000 nM and under 100 nM, respectively.

`COc1cc2c(cc1Nc1ncc(Cl)c(Nc3ccc(N4CCN(C)CC4)cc3OC)n1)CCN(CC(F)F)CC2` [Example 764, 5-Chloro-N*2*-[3-(2,2-difluoro-ethyl)-8-methoxy-2,3,4,5-tetrahydro-1H-benzo[d]azepin-7-yl]-N*4*-[2-methoxy-4-(4-methyl-piperazin-1-yl)-phenyl]-pyrimidine-2,4-diamine]: the IC50 was under 100 nM in assay [1] (setting [7]) and over 10000 nM in assay [2] (setting [8]).

Turning to `COc1cc2c(cc1Nc1ncc(Cl)c(N[C@@H]3CCCC[C@H]3NS(C)(=O)=O)n1)N(C)CCN(C[C@@H](O)C(F)(F)F)C2` [Example 492, N-((1R,2R)-2-{5-Chloro-2-[7-methoxy-1-methyl-4-((R)-3,3,3-trifluoro-2-hydroxy-propyl)-2,3,4,5-tetrahydro-1H-benzo[e][1,4]diazepin-8-ylamino]-pyrimidin-4-ylamino}-cyclohexyl)-methanesulfonamide], the IC50 in assay [1] (setting [5]) is under 100 nM; in assay [2] (setting [6]), over 10000 nM.

With `C#CCNC(=O)c1cccc(F)c1Nc1nc(Nc2ccc3c(c2)N(C(=O)CN(C)C)CCCC3(C)C)ncc1Cl` [Example 1631, 2-{5-Chloro-2-[1-(2-dimethylamino-acetyl)-5,5-dimethyl-2,3,4,5-tetrahydro-1H-benzo[b]azepin-8-ylamino]-pyrimidin-4-ylamino}-3-fluoro-N-prop-2-ynyl-benzamide], the IC50 in assay [1] (setting [3]) and in assay [2] (setting [4]) was 100 to 1000 nM throughout.

On to `CNC(=O)c1cccc(F)c1Nc1nc(Nc2ccc3c(c2)OCCCN3C(=O)OC2CCCN(C)C2)ncc1Cl` (stereo not shown) [Example 1438, 3-[5-Chloro-4-(2-fluoro-6-methylcarbamoyl-phenylamino)-pyrimidin-2-ylamino]-7,8-dihydro-6H-5-oxa-9-aza-benzocycloheptene-9-carboxylic acid 1-methyl-piperidin-3-yl ester], for which the IC50 in assay [1] (setting [3]) and in assay [2] (setting [4]) was under 100 nM each time.
